Results: patent US8802929B2, “MIR164 gene that controls plant root system development and fertility and use thereof” (Huazhong Agricultural University, priority 2009, dated 2014)

Key:
[1] = tested on: transgenic plants overexpressing miR164; assay: Restoration of fertility of transgenic plants overexpressing miR164 by external application of hormones; assay type: in vivo, rice; details: two T0 transgenic plants; four phytohormones (IAA, NAA, KT, 6-BA) applied continually from tillering stage to grain filling stage; FIG. 7
Description: Two T0 transgenic plants overexpressing miR164 were continually subjected to external application of four phytohormones, indoleacetic acid (IAA), naphthaleneacetic acid (NAA), kinetin (KT), and 6-benzylaminopurine (6-BA) from tillering stage to grain filling stage, and compared with the transgenic plants overexpressing miR164 grown normally. […] That the fertility of transgenic rice plants overexpressing miR164 could be restored by external application of hormones can be taken advantage of to conveniently use a transgenic rice plant to breed a sterile line (without application of hormones) or a maintainer line (by external application of hormones to allow the sterile line to produce seeds and to be reproduced; however the next generation is still sterile without externally applied hormones), thereby achieving “the double usage of a single line” for the breeding of hybrid rice.

[2] = tested on: miR164; assay: Expression level of mature miR164 after phytohormone treatment, Northern blotting; assay type: in vivo, rice variety Minghui 63 (Oryza sativa L. ssp. Indica); details: hormone sprayed onto rice plants at 4-leaf stage; for change in expression of miR164 after phytohormone treatment: leaves, Northern blotting, FIG. 3
Method: The indica rice variety “Minghui 63” was used for expression profile analysis. Phytohormone treatment was carried out by evenly spraying the hormones onto the surfaces of the rice plants at the 4-leaf stage obtained from seeds which had been induced to germinate and cultivated under normal growth conditions for 18-20 days. The plants treated with kinetin and gibberellin were sampled before treatment as well as 1 min, 5 min, 10 min, 20 min, 30 min, 1 h, and 3 h after treatment. The plants treated with naphthaleneacetic acid were sampled before treatment as well as 30 min, 3 h, 9 h and 24 h after treatment. The plants treated with brassinolide were sampled before treatment as well as 15 min, 30 min, 1 h, 3 h, 6 h, 9 h and 21 h after treatment. Light treatment of etiolated shoots was performed by subjecting seeds to induction of germination and continuous cultivation in dark for 14 days followed by transferring the etiolated shoots to normal lighting conditions. Samples were taken before light treatment as well as 3 h, 6 h and 9 h after light treatment. Total RNA was extracted from leaves using Trizol reagent (Invitrogen Corp.), and then transferred to membrane as described by Xie et al. (Xie K, Wu C, and Xiong L. Genomic organization, differential expression, and interaction of SQUAMOSA promoter-binding-like transcription factors and microRNA156 in rice. Plant Physiol, 2006, 142: 280-293). Northern hybridization was performed using miR164 as the probe. […] The expression level of miR164 increased 24 hours after naphthaleneacetic acid (NAA) treatment.

[3] = tested on: rice root system; assay: Root system phenotype of transgenic plants overexpressing miR164 on 1/2 MS medium; assay type: in vivo; details: overexpression under ubiquitin promoter; 10 days on 1/2 MS basal media; FIG. 5
Method: In this example, transgenic plants overexpressing miR164 (FIG. 4) and wild-type plants were grown in ½ MS medium and observed for their phenotypes. The procedure was carried out as follows, Rice seeds from transgenic lines overexpressing miR164 were husked and disinfected (75% alcohol treatment for 3 minutes followed by 0.15% HgCl2 treatment for 30 minutes, and rinsed with sterile water for several times), and then allowed to germinate on the ½ MS basal media containing 50 mg/L hygromycin. One day later, the rice seeds from wild-type control lines were placed on the ½ MS basal media without hygromycin and allowed to germinate. Two to three days later, well germinated and consistently grown seeds were transferred to ½ MS basal media and cultivated in an illumination incubator (which simulated natural growth condition of 14-hour light and 10-hour darkness) for 10 days for phenotype observation. More than 30 plants were selected for each of the transgenic and wild-type plant lines, and each experiment was run in triplicate.

[4] = tested on: rice pollens; assay: Fertility phenotype of transgenic plants overexpressing miR164 (iodine staining of pollens); assay type: in vivo; details: overexpression under ubiquitin promoter; FIG. 6
Description: This abnormality made the glumes unable to open such that the filaments, although elongated, could not extend out of the glumes (FIG. 6B). […] Moreover, the ovaries of most of the transgenic plants overexpressing miR164 stopped growing or even died (FIG. 6C to 6E). The development of anthers in the transgenic plants overexpressing miR164 was abnormal. […] The pollens of the transgenic plants overexpressing miR164 were not in the normal globular shape, but were shrunken (FIG. 6F to 6K). […] The sterility of the transgenic plants overexpressing miR164 could be utilized to conveniently breed a rice sterile line for hybrid rice breeding.

Row | Compound | seed production of transgenic plants overexpressing miR164 after external application of hormones [1] | change in expression of miR164 after phytohormone treatment [2] | also measured
1 | c1ccc(CNc2ncnc3nc[nH]c23)cc1 [6-benzylaminopurine, 6-Benzylaminopurine] | produce seeds normally | – | –
2 | c1coc(CNc2ncnc3[nH]cnc23)c1 [Kinetin] | produce seeds normally | decreased gradually | –
3 | CC(C)[C@H](C)[C@@H](O)[C@H](O)[C@@H](C)[C@H]1CC[C@H]2[C@@H]3COC(=O)[C@H]4C[C@H](O)[C@H](O)C[C@]4(C)[C@H]3CC[C@]12C [brassinolide] | – | no obvious change | –
4 | O=C(O)Cc1c[nH]c2ccccc12 [indoleacetic acid, Indole-3-acetic acid] | produce seeds normally | – | –
5 | gibberellin | – | increased | time of peak miR164 expression after treatment ([2]; then dropping to the level before treatment): 10 min
6 | miR164: mature microRNA (SEQ ID NO: 2) from the rice miR164 gene (SEQ ID NO: 1), overexpressed in rice under a ubiquitin promoter (UGGAGAAGCAGGGCACGUGCA; listed as Oryza sativa) | – | – | root system of transgenic plants versus wild-type plants [3]: obviously larger root systems; pollen fertility of transgenic plants (iodine staining) [4]: completely sterile
